“Also recorded” adds a separate entry of the source. Like-named read-outs stand apart in the source and are kept apart here.
Key:
HPV16 pseudovirus [1] = assay: microbe, parasite or virus in culture; assay type: cell-based; conditions: HaCaT, HPV16 pseudovirus
From the text: FIG. 2. Dose dependence inhibition of HPV16 pseudovirus infection in a human keratinocyte cell line (HaCaT). Graphed are the dose-dependent effects of lead compounds shown in Table 2 on the efficiency of infection by HPV16 pseudovirus scored by measuring luciferase reporter activity (squares) as well as their effects on cell viability (circles).
All but one of these compounds (6 is […]) were repurchased and subjected to a tertiary screen performed in the human keratinocyte cell line, HaCaT, and using HPV16 pseudoviruses encoding a third reporter gene, firefly luciferase, transcribed from a different, E1a, promoter.
The infectivity assay was repeated at least twice and each assay was performed in replicate (n≥3).
At 4 hours prior to exposure of cell to pseudoviruses, compounds were added to plates in 1% DMSO final concentration at the indicated amounts. Four hours later, 10 multiplicity of infection (M.O.I.) units of HPV16 pseudovirus carrying the plasmid LucF was added to the cells. 72 hours later, cells were lysed and luciferase assays performed using the Luciferase Assay System (Promega Cat. #E1501). For infection studies with HPV11 and HPV31 pseudoviruses, 200 virus genome equivalents (vge) of virus per cell were used. Cell viability was assessed in parallel plates by Luminescent Cell Viability Assay (Promega Cat. #G7571).

HPV16 pseudoviruses = assay: microbe, parasite or virus in culture; assay type: cell-based; conditions: for activity at 3 µM: Human papillomavirus 16, HEK-293T, 48 h
Procedure, shortened: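 Viability was read by CellTiter Glo luminescence on the same wells used for the SEAP infection read-out, after 48 hrs further incubation.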

HPV16 pseudovirus [2] = assay: Luciferase assay: HPV16 pseudovirus with renilla luciferase reporter (HPV16wpA-RL); conditions: renilla luciferase reporter behind HPV16 promoter
Procedure: (§1) The protocol for the secondary screen was identical to that of the primary screen with the exception that all volumes were scaled up by a factor of four. RL activity was measured using the Renilla Luciferase Assay System (Promega).

in vitro [3] = conditions: human
HPV16 virus = assay: Wild type HPV16 infection in 293T cells, early viral gene expression by real time PCR; assay type: cell-based; conditions: 5 to 10 μM (FIG. 3: 10 μM), 48 hours post infection
Procedure: FIG. 3. Inhibition of infection by HPV 16 virus. Shown is the relative efficiency of infection by HPV16 virus in 293T cells as scored by quantifying early viral transcription using real time PCR for E2 (dark grey bars), E5 (white bars) and E7 (light grey bars) containing mRNAs at 48 hours post-infection in the absence (DMSO—vehicle only, values set at 100%) or the presence of the indicated compound (10 μM concentration). Data points shown are the average of triplicate sample values. The dotted line indicates the normalized value for no drug (set as 100% infection value).
The 21 selected compounds were also tested for their ability to inhibit infection by bonafide HPV16 in 293T cells by measuring early viral gene expression by real time PCR at 48 hours post infection (FIG. 3) after treatment of the cell with 5 to 10 μM of each compound. Consistently with the data of reporter gene assays, HPV early gene expression was inhibited by Compounds 4, 13, 14, 18 and 20. Given the large differences in IC50 and CD50, and the reproducible capacity to inhibit infection by HPV16 pseudovirus and HPV16 virus in different cell types, Compounds 13 and 14 were selected for further analysis.
After 2 day infection, total RNA was isolated from infected cell lysate and treated with DNase I (Promega) as previously. (Pyeon, D. et al., Establishment of human papillomavirus infection requires cell cycle progression, PLos Pathog. 2009 February; 5(2):e1000318. Epub 2009 Feb. 27). Complementary DNA (cDNA) was synthesized from the normalized total RNA with the SuperScript cDNA synthesis kit (Invitrogen). All oligonucleotide primers (0.5 μM) for PCR are previously published (Pyeon D. et al., Production of infectious human papillomavirus independently of viral replication and epithelial cell differentiation, Proc. Nat'l Acad. Sci. USA, 2005 Jun. 28; 102(26):9311-6, Epub 2005 Jun. 15) or listed in Table 2.
Conventional PCR was performed with Taq DNA polymerase (Promega) and the following cycle: denaturation at 94° C. for 5 min, 42 cycles of 94° C. for 30 sec., 55° C. for 1 min., and 72° C. for 1 min., followed by extension at 72° C. for 7 min. Final products were analyzed by 1% agarose gel electrophoresis and ethidium bromide staining. Quantitative RT-PCR was performed using QuantiTect SYBR green PCR kit (Qiagen) with the following cycle: denaturation at 95° C. for 5 min. and 40 cycles of 95° C. for 30 sec., 55° C. for 30 sec., and 72° C. for 30 sec.

in vitro [4] = conditions: human; remark: listed apart in the source
Procedure: as §1

in vitro [5] = conditions: human; remark: listed apart in the source
293T cells = assay: Primary HTS: cell viability (CellTiter Glo) in parallel on the same wells; conditions: 3 μM HTS standard concentration, 293T cells
[6] = read-out: Infectivity (SEAP Activity), 3 μM HTS standard concentration, 293T cells, 48 hrs
[7] = read-out: Infectivity vs. viability, 3 μM HTS standard concentration, ratio infectivity/viability
[8] = read-out: Primary HTS SEAP vs Viability, Table 2, first pair of columns (c2)
[9] = read-out: Primary HTS SEAP vs Viability, Table 2, second pair of columns (c4)
[10] = Primary HTS Viability % Average

Molecule | Effect on infection and cytotoxicity, assayed independently (HPV16 pseudovirus [1]) | activity at 3 µM (HPV16 pseudoviruses; [6]) [%] | activity at 3 µM (HPV16 pseudoviruses; [7]) [%] | activity at 3 µM (HPV16 pseudoviruses; [8]) [%] | activity at 3 µM (HPV16 pseudoviruses; [9]) [%] | Luciferase assay RL % Average (HPV16 pseudovirus [2]) [%] | viability at 52 h, 3 μM (in vitro [3]; [10]) [%] | viability at 52 h, 3 μM (in vitro [3]; Viability (CelTiter Glow)) [%] | Inhibition of HPV16 early gene expression (E2, E5, E7 mRNAs) (HPV16 virus) | viability at 52 h, 3.3 μM (in vitro [4]) [%] | viability at 52 h, 3.3 μM (in vitro [5]) [%] | Infectivity (SEAP Activity) (HPV16 pseudoviruses; 3 μM HTS standard concentration, 293T cells, 48 hrs) [%] | Infectivity vs. viability (HPV16 pseudoviruses; 3 μM HTS standard concentration, ratio infectivity/viability) [%] | Viability (CelTiter Glow) (293T cells) [%]
NNC(=O)c1cc(COc2cc(Cl)cc(Cl)c2)on1 [Compound 4, 5-[(3,5-dichlorophenoxy)methyl]-1,2-oxazole-3-carbohydrazide] | inhibit infection but also to cause cytotoxicity at similar doses | 22.6 | 25 | 18.3 | 26.9 | 68.26 | 94.5 | 90.4 | reproducible and significant inhibition; also recorded: inhibited |  |  |  |  | 
COc1ccc(C(O)(CNCc2ccccc2)c2ccc(Br)cc2)cc1 (stereo not shown) [Compound 9, 2-(benzylamino)-1-(4-bromophenyl)-1-(4-methoxyphenyl)ethanol] |  | 29.9 | 28.4 | 16.5 | 43.4 | 71.67 | 101 | 105 |  | 99 | 102 |  |  | 
COC(=O)C1=C(C)NC2=C(C(=O)c3ccccc32)C1c1cc2c(cc1Br)OCO2 (stereo not shown) [Compound 11, methyl 4-(6-bromo-1,3-benzodioxol-5-yl)-2-methyl-5-oxo-4,5-dihydro-1H-indeno[1,2-b]pyridine-3-carboxylate] |  | 19.1 | 14.7 | 17.7 | 20.4 | 95.56 |  | 130 |  | 95.7 | 97.3 |  |  | 
CCOc1ccc(C(=O)Nc2ccc3oc(-c4ccccc4Br)nc3c2)cc1 [Compound 15, N-[2-(2-bromophenyl)-1,3-benzoxazol-5-yl]-4-ethoxybenzamide] |  | 26.4 | 28.1 | 11.1 | 41.6 | 102.39 | 89.5 | 93.8 |  | 97.7 | 95.7 |  |  | 
O=C1NC(=S)SC1=Cc1cc(Br)ccc1OCc1ccccc1Cl [Compound 18, 5-{5-bromo-2-[(2-chlorobenzyl)oxy]benzylidene}-2-thioxo-1,3-thiazolidin-4-one] |  | 24.2 | 25.4 | 27.2 | 21.2 | 112.63 | 87.8 | 95.4 | reproducible and significant inhibition; also recorded: inhibited |  |  |  |  | 
CC(O)c1cccc(NC(=O)c2cc3n(n2)C(C(F)(F)F)CC(c2ccc(F)cc2)N3)c1 (stereo not shown) [Compound 19, 5-(4-fluorophenyl)-N-[3-(1-hydroxyethyl)phenyl]-7-(trifluoromethyl)-4,5,6,7-tetrahydropyrazolo[1,5-a]pyrimidine-2-carboxamide] |  | 40.8 | 37.9 | 50 | 31.5 | 88.74 | 116 | 107 |  |  |  |  |  | 
FC(F)(F)c1cnc2c(c1)nc(S)n2-c1ccc(Cl)cc1 [Compound 20, 3-(4-chlorophenyl)-6-(trifluoromethyl)-3H-imidazo[4,5-b]pyridine-2-thiol] |  | 21.4 | 21.6 | 20.9 | 21.9 | 109.22 | 95.8 | 99.1 | reproducible and significant inhibition; also recorded: inhibited |  |  |  |  | 
Cc1cccc(NC(=O)Nc2ccc(C(C)(C)C)cc2)n1 [Compound 21, 1-(4-tert-butylphenyl)-3-(6-methylpyridin-2-yl)urea] |  | 43.8 | 47.2 | 34.2 | 53.5 | 109.22 | 92.8 | 92.8 |  |  |  |  |  | 
Cc1ccc(C2Nc3ccccc3NC3=C2C(=O)CC(c2ccccc2)C3)s1 (stereo not shown) [Compound 22, 11-(5-methyl-2-thienyl)-3-phenyl-2,3,4,5,10,11-hexahydro-1H-dibenzo[b,e][1,4]diazepin-1-one] |  | 44.1 | 41.9 | 45.2 | 43 | 44.37 |  | 105 |  | 97.3 | 93.7 |  |  | 
-[(3-fluorophenypamino]-3-methylpyrido[1,2-a]benzimidazole-4-carbonitrile [Compound 5873417] |  |  |  |  |  |  |  |  |  |  |  | 46.16 | 45.53 | 101.39
